Assay results as given in ChEMBL document CHEMBL1159201, “Microbial biotransformation of veratramine” (J Nat Prod, 1998).
≈ marks a conversion by molar mass, not a printed value.

How the values were obtained:
[1] = system: Vero; assay: Cytotoxicity against african green monkey Vero cells; format: cell-based; settings: chlorocebus sabaeus
[2] = system: Plasmodium falciparum; assay: Antiplasmodial activity against Plasmodium falciparum W2; format: functional, organism-based

| IC50 [2] [µg/mL] | SMILES | Activity [1] |
| --- | --- | --- |
| – | Cc1c([C@H](C)[C@@H]2NC[C@@H](C)C[C@H]2O)ccc2c1C[C@H]1[C@H]2CCC2=CC(=O)CC[C@@]21C | Non-toxic |
| 3.6 (≈ 8.88 µM) | Cc1c([C@H](C)[C@@H]2NC[C@@H](C)C[C@H]2O)ccc2c1C[C@H]1[C@H]2CCC2=CC(=O)C=C[C@@]21C | Non-toxic |
| – | Cc1c([C@H](C)[C@@H]2NC[C@@H](C)C[C@H]2O)ccc2c1C[C@H]1[C@H]2CC[C@H]2CC(=O)CC[C@@]21C [DIHYDROVERATRAM-3-ONE] | Non-toxic |
| – | Cc1c([C@H](C)[C@@H]2NC[C@@H](C)C[C@H]2O)ccc2c1C[C@H]1[C@H]2CC=C2C[C@@H](O)CC[C@@]21C [VERATRAMINE] | Non-toxic |
